Results taken from patent US20230303552A1, “ARYLSULFONYL DERIVATIVES AND THEIR USE AS MUSCARINIC ACETYLCHOLINE RECEPTOR M5 INHIBITORS” (Vanderbilt University, priority 2020, published 2023).
pIC50: −log10 of the molar value.

Target: T1, human M5 receptors (hM5) (Homo sapiens, UniProt P08912)
T1 construct: expressed in transfected cells
T1 sequence (P08912 1-532): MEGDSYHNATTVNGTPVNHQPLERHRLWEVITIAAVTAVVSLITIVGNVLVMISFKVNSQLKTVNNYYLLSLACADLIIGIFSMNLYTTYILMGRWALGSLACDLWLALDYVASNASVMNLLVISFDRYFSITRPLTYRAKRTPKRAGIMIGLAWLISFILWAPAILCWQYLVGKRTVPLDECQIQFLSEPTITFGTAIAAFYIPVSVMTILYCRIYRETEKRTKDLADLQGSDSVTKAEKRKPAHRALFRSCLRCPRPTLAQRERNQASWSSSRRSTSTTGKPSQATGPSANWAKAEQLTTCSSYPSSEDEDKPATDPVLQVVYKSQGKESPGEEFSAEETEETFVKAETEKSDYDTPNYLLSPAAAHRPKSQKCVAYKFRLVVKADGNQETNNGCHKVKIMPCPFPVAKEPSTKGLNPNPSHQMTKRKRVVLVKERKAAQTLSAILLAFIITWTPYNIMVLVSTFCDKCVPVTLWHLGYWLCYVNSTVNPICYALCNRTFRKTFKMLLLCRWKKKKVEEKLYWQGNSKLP
Experiment: Cell-based functional calcium mobilization assay of mAChR M5 activity (inhibition of EC80 acetylcholine response) in CHO cells
Details: CHO cells stably expressing hM5; for pIC50: calcium flux (Fluo-4), EC80 acetylcholine addition; for EC80 MIN: minimum of EC80 acetylcholine response, normalized to maximum acetylcholine response
Description: All functional cell-based assays were performed essentially as previously described (Marlo et al., Mol.Pharm. 2009, 75(3), 577-588; Brady et al., J. Pharm. & Exp. Ther. 2008, 327, 941-953). Initial, single point (10 µM) competitive and non-competitive inhibitor characterization was performed in stable Chinese Hamster Ovary (CHO) cell lines constitutively expressing human M5 receptors. These were plated at 15,000 cells per 20 µL per well in Greiner 384-well black-walled, TC-treated, clear-bottomed plates (Fisher) in Ham’s F12 medium supplemented with 10% FBS and 20 mM HEPES. Cells were incubated overnight at 37° C. under 5% CO2. The following day, medium was exchanged with assay buffer (Hank’s Balanced Salt Solution supplemented with 20 mM HEPES and 2.5 mM Probenecid, pH 7.4) leaving 20 µL of assay buffer in each well. This was followed by the addition of 20 µL of 2.3 µM of Fluo-4 AM (Invitrogen) in assay buffer (final concentration 1.15 µM). The cells were then incubated 50 minutes at 37° C. under 5% CO2. The assay buffer plus dye was then exchanged with fresh assay buffer leaving a volume of 20 µL in each well. Test compounds were diluted into assay buffer to a 2X (20 µM) concentration in 0.2% dimethylsulfoxide (DMSO) in columns 3 - 22 with matching DMSO concentration in columns 1, 2, 23, and […]; compounds were added to the assay for a final concentration of 10 µM and a final DMSO concentration of 0.1%. Acetylcholine (Sigma-Aldrich) was prepared to provide 5X concentrations of EC20, EC80, and ECmax in the triple-addition assay, providing a signal window to view agonism, potentiation, and inhibition of the acetylcholine response as well as a means to normalize to the maximum acetylcholine response.
Either an FDSS (Hamamatsu) or Panoptic (WaveFront Biosciences) kinetic imaging plate reader was used for assay execution and measurement of calcium flux. After establishing baseline fluorescence, test compounds (20 µL) were added to the cells using the reader’s integrated pipettor and allowed to equilibrate for 140 seconds before addition of the EC20 concentration of acetylcholine (10 µL) along with vehicle in selected DMSO-only wells in the outer two columns. The EC80 concentration of acetylcholine (10 µL) was added 125 seconds after the EC20 addition along with ECmax concentration in the wells receiving vehicle in the second addition. The raw fluorescence data from each well was normalized to the corresponding initial fluorescence reading (static ratio). The maximum fluorescence value following each addition was determined and the minimum value within that same timeframe was subtracted for each well then normalized to the average of the ECmax maximum-minimum response, providing a %AChmax value for each addition for each well. The single point values represent mean values determined within the EC80 addition timeframe obtained from at least three independent determinations performed in triplicate or greater (error bars represent +/- SEM) unless otherwise specified.
Further characterization of competitive and non-competitive inhibitor compounds (compound potency and mAChR subtype-selectivity) was performed on the FDSS with calcium mobilization assays performed as previously described (Marlo et al., 2009; Brady et al., 2008) and in a format similar to that described above using the same reagents. CHO cells stably expressing hM1, hM2/Gqi5, hM3, hM4/Gqi5, hM5, rM1, rM2/Gqi5, rM3, rM4/Gqi5, or rMs were plated in the manner described above. A ten-point concentration range of test compound was serial diluted in assay buffer to 2X final concentration and acetylcholine was diluted in assay buffer to 5X of the EC20 and EC80 concentrations, determined empirically and 5X maximal (2 mM final concentration) stock concentrations. FDSS protocols were carried out as described above; the static ratio was calculated and the minimum response subtracted from the maximum response within the timeframe of each addition. […]

Row | pIC50 | EC80 MIN | Structure (SMILES)
1 | 6.96 | 3% | CC1COc2ccc(S(=O)(=O)N3CCC(C(=O)Nc4ccc5scnc5c4)CC3)cc21 (racemic) [Compound 131, (rac)-N-(benzo[d]thiazol-5-yl)-1-((3-methyl-2,3-dihydrobenzofuran-5-yl)sulfonyl)piperidine-4-carboxamide]
2 | 6.24 | 3% | C[C@@H]1C[C@@H](C(=O)Nc2ccc3scnc3c2)CCN1S(=O)(=O)c1ccc2ncsc2c1 (racemic) [Compound 134, trans-(rac)-N-(benzo[d]thiazol-5-yl)-1-(benzo[d]thiazol-6-ylsulfonyl)-2-methylpiperidine-4-carboxamide]
3 | 5.86 | 3% | Cc1cc2c(cc1S(=O)(=O)N1CCC(C(=O)Nc3ccc4scnc4c3)CC1)C(C)CO2 (racemic) [Compound 145, (rac)-N-(benzo[d]thiazol-5-yl)-1-((3,6-dimethyl-2,3-dihydrobenzofuran-5-yl)sulfonyl)piperidine-a-carboxamide]
4 | 8.00 | 2% | Cn1ncc(S(=O)(=O)N2CC[C@H](C(=O)Nc3ccc4scnc4c3)[C@@H](F)C2)c1Cl (racemic) [Compound 159, trans-(rac)-N-(benzo[d]thiazol-5-yl)-1-((5-chloro-1-methyl-1H-pyrazol-4-yl)sulfonyl)-3-fluoropiperidine-4-carboxamide]
5 | 7.89 | 2% | Cc1ncc(S(=O)(=O)N2CC[C@H](C(=O)Nc3ccc4scnc4c3)[C@@H](F)C2)s1 (racemic) [Compound 160, trans-(rac)-N-(benzo[d]thiazol-5-yl)-3-fluoro-1-((2-methylthiazol-5-yl)sulfonyl)piperidine-4-carboxamide]
6 | 5.56 | 3% | O=C(Nc1ccc2scnc2c1)C1CCN(S(=O)(=O)c2ccc(Cl)s2)CC1 [Compound 1, N-(benzo[d]thiazol-5-yl)-1-((5-chlorothiophen-2-yl)sulfonyl)piperidine-4-carboxamide]
7 | 6.17 | 5% | O=C(Nc1ccc2scnc2c1)C1CCN(S(=O)(=O)c2ccc3ncsc3c2)CC1 [Compound 3, N-(benzo[d]thiazol-5-yl)-1-(benzo[d]thiazol-6-ylsulfonyl)piperidine-4-carboxamide]
8 | 6.02 | 2% | O=C(Nc1ccc2scnc2c1)C1CCN(S(=O)(=O)c2ccc3ncccc3c2)CC1 [Compound 4, N-(benzo[d]thiazol-5-yl)-1-(quinolin-6-ylsulfonyl)piperidine-4-carboxamide]
9 | 6.52 | 2% | Cc1nn(C)cc1S(=O)(=O)N1CCC(C(=O)Nc2ccc3scnc3c2)CC1 [Compound 5, N-(benzo[d]thiazol-5-yl)-1-((1,3-dimethyl-1H-pyrazol-4-yl)sulfonyl)piperidine-4-carboxamide]
10 | 6.74 | 4% | O=C(Nc1ccc2scnc2c1)C1CCN(S(=O)(=O)c2ccc(Cl)nc2)CC1 [Compound 7, N-(benzo[d]thiazol-5-yl)-1-((6-chloropyridin-3-yl)sulfonyl)piperidine-4-carboxamide]
11 | < 5.00 | 23% | O=C(Nc1ccc2scnc2c1)C1CCN(S(=O)(=O)c2ccsc2)CC1 [Compound 8, N-(benzo[d]thiazol-5-yl)-1-(thiophen-3-ylsulfonyl)piperidine-4-carboxamide]
12 | < 5.00 | 38% | N#Cc1cc(S(=O)(=O)N2CCC(C(=O)Nc3ccc4scnc4c3)CC2)ccc1Cl [Compound 9, N-(benzo[d]thiazol-5-yl)-1-((4-chloro-3-cyanophenyl)sulfonyl)piperidine-4-carboxamide]
13 | 5.88 | 3% | COc1ccc(S(=O)(=O)N2CCC(C(=O)Nc3ccc4scnc4c3)CC2)cn1 [Compound 10, N-(benzo[d]thiazol-5-yl)-1-((6-methoxypyridin-3-yl)sulfonyl)piperidine-4-carboxamide]
14 | < 5.00 | 52% | O=C(Nc1ccc2scnc2c1)C1CCN(S(=O)(=O)c2ccc(C(F)(F)F)nc2)CC1 [Compound 11, N-(benzo[d]thiazol-5-yl)-1-((6-(trifluoromethyl)pyridin-3-yl)sulfonyl)piperidine-4-carboxamide]
15 | < 5.00 | 22% | O=C(Nc1ccc2[nH]cnc2c1)C1CCN(S(=O)(=O)c2ccc3c(c2)CCO3)CC1 [Compound 13, N-(1H-benzo[d]imidazol-5-yl)-1-((2,3-dihydrobenzofuran-5-yl)sulfonyl)piperidine-4-carboxamide]
16 | 5.75 | 2% | O=C(Nc1ccc2scnc2c1)C1CN(S(=O)(=O)c2ccc3c(c2)CCO3)C1 [Compound 16, N-(benzo[d]thiazol-5-yl)-1-((2,3-dihydrobenzofuran-5-yl)sulfonyl)azetidine-3-carboxamide]
17 | 6.12 | 3% | Cc1noc(C)c1S(=O)(=O)N1CCC(C(=O)Nc2ccc3scnc3c2)CC1 [Compound 17, N-(benzo[d]thiazol-5-yl)-1-((3.5-dimcthylisoxazol-4-yl)sulfonyl)piperidine-4-carboxamide]
18 | 7.25 | 2% | O=C(Nc1ccc2scnc2c1)C1CCN(S(=O)(=O)c2cccnc2)CC1 [Compound 18, N-(benzo[d]thiazol-5-yl)-1-(pyridin-3-ylsulfonyl)piperidine-4-carboxamide]
19 | 5.50 | 19% | Cc1nc(C(F)(F)F)c(S(=O)(=O)N2CCC(C(=O)Nc3ccc4scnc4c3)CC2)s1 [Compound 19, N-(benzo[d]thiazol-5-yl)-1-((2-methyl-4-(trifluoromcthyl)thiazol-5-yl)sulfonyl)piperidine-4-carboxamide]
20 | < 5.00 | 49% | Cn1cnc(S(=O)(=O)N2CCC(C(=O)Nc3ccc4scnc4c3)CC2)c1 [Compound 20, N-(benzo[d]thiazol-5-yl)-1-((1-methyl-1H-imidazol-4-yl)sulfonyl)piperidine-4-carboxamide]
21 | 6.36 | 3% | O=C(Nc1ccc2scnc2c1)C1CCN(S(=O)(=O)c2cccc3nsnc23)CC1 [Compound 21, 1-(benzo[c][1,2,5]thiadiazol-4-ylsulfonyl)-N-(benzo[d]thiazol-5-yl)piperidine-4-carboxamide]
22 | < 5.00 | 43% | CC1(C(=O)Nc2ccc3scnc3c2)CN(S(=O)(=O)c2ccc3c(c2)CCO3)C1 [Compound 22, N-(benzo[d]thiazol-5-yl)-1-((2,3-dihydrobenzofuran-5-yl)sulfonyl)-3-methylazetidine-3-carboxamide]

Row | Structure (SMILES) | pIC50 | EC80 MIN
23 | O=C(Nc1ccc2scnc2c1)C1CCN(S(=O)(=O)c2ccc3c(c2)CCO3)CC1 [Compound 2, N-(benzo[d]thiazol-5-yl)-1-((2,3-dihydrobenzofuran-5-yl)sulfonyl)piperidine-4-carboxamide] | 7.14 | 2%
